Data as given in patent US4966900A, “Cephalosporin β-lactam compound and medicinal composition” (priority 1986, dated 1990).
Converted amounts (≈) assume the structure as drawn. Counter-ions that a name gives are not always drawn. Like-named read-outs stand apart in the source and are kept apart here. Each block holds one compound with its values, some of them ahead of it.

How the values were obtained:
A. calcoaceticu OF1063 = assay: MIC; format: cell-based; settings: Table 2, sodium salt
Description: (§1) The minimum inhibition concentrations (MIC) of the compounds obtained in Example 1 and Example 2 were measured according to the standard method of Japanese Chemotherapy Association.

A. xylosoxidans OF1001 = assay: MIC; format: cell-based; settings: Achromobacter xylosoxidans, Table 2, sodium salt
Description: as §1

E. coli NIHJ JC-2 = assay: MIC; format: cell-based; settings: Escherichia coli, NIHJJC2, Table 2, sodium salt
Description: as §1

E. colacae GN7471 = assay: MIC
P. maltophilia OF247 = assay: MIC; settings: Stenotrophomonas maltophilia
E. cloacae 5D63-2 = assay: MIC
S. marcescens GN10857 = assay: MIC; settings: Serratia marcescens, GN10857, S. marcescens GN10857
E. cloacae 5D52-2 = assay: MIC
C. freundii 1U692 = assay: MIC
E. coli GN5482 = assay: MIC; settings: Escherichia coli, GN5482, E. coli GN5482
P. aeruginosa 4au542 = assay: MIC; settings: Pseudomonas aeruginosa, 4AU542, P. aeruginosa 4au542
C. freundii 1R527 = assay: MIC
E. cloacae 908RN = assay: MIC; settings: Enterobacter cloacae
P. cepacia OF189 = assay: MIC; settings: Burkholderia cepacia, OF189, P. cepacia OF189
C. freundii 5D60-1 = assay: MIC
E. cloacae 1Y247 = assay: MIC; format: cell-based
Description: (§2) The minimum inhibition concentrations (MIC) of the compounds obtained in the respective examples described above were measured according to the standard method of Japanese Chemotherapy Association.

P. aeruginosa GN10362 = assay: MIC
C. freundii 1R526 = assay: MIC
C. freundii 1R523 = assay: MIC
E. cloacae 1V25 = assay: MIC; settings: Enterobacter cloacae
C. freundii GN7391 = assay: MIC; settings: Citrobacter freundii, GN7391, C. freundii GN7391
in vivo = assay: in vivo; set-up: species or system Macaco; settings: monkey, 20 mg/kg
Description: Each of 20 mg/kg of the compounds obtained in Example 2, Example 25 and Example 28 was administered parenterally to Macaco and the half-time in blood was measured.
The concentrations of the compounds were measured according to HPLC method. Novapack C18 or Microbondapack C18 (trade name, produced by Waters Co.) was used as a column. Further, cefpiramide was used as a control drug.

E. coli ML4707 = assay: MIC; settings: Escherichia coli, ML4707, E. coli ML4707
P. aeruginosa 5D58-1 = assay: MIC; settings: Pseudomonas aeruginosa, 5D581, P. aeruginosa 5D58-1
P. vulgaris GN7919 = assay: MIC
C. freundii 1R524 = assay: MIC
C. freundii 1U589 = assay: MIC
S. aureus Smith = assay: MIC; settings: Staphylococcus aureus
K. pneumoniae 4at521 = assay: MIC
[1] = central and tissue distribution volume in Macaco (parenteral, HPLC); format: in vivo; settings: monkey, blood, 20 mg/kg, 20 mg/kg parenteral, sodium salt
Description: 20 mg/kg of the compound obtained in Example 1 was administered parenterally to Macaco and a central distribution volume and a tissue distribution volume were calculated by their concentrations in blood measured with time.
The concentration of the compound was measured according to HPLC method. Microbondapack C18 (trade name, produced by Waters Co.) was used as a column and 8% acetonitrile-2% tetrahydrofuran-0.2% phosphoric acid was used as a solvent.

S. aureus IAA498 = assay: MIC; format: cell-based; settings: Staphylococcus aureus, Table 5
Description: as §2

[2] = E. cloacae 908RN, Table 3, sodium salt
[3] = E. colacae 908RN, Table 2, sodium salt
[4] = Enterobacter cloacae, Table 3, sodium salt, read-out: MIC
[5] = Pseudomonas aeruginosa, GN10362

MIC (A. calcoaceticu OF1063): 3.13 µg/mL
MIC (A. xylosoxidans OF1001): 0.78 µg/mL
MIC (E. coli NIHJ JC-2): 0.1 µg/mL
MIC (E. colacae GN7471; Table 2, sodium salt): 6.25 µg/mL
MIC (P. maltophilia OF247; Table 2, sodium salt): 0.2 µg/mL
MIC (E. cloacae 5D63-2; Enterobacter cloacae, 5D632): 0.78 µg/mL (≈ 0.942 µM)
MIC (S. marcescens GN10857; Table 2, sodium salt): 0.2 µg/mL
MIC (E. cloacae 5D52-2; Enterobacter cloacae, 5D522): 0.2 µg/mL (≈ 0.242 µM)
MIC (C. freundii 1U692; Citrobacter freundii, 1U692): 1.56 µg/mL (≈ 1.88 µM)
MIC (E. coli GN5482; Table 2, sodium salt): 0.1 µg/mL
MIC (P. aeruginosa 4au542; Table 2, sodium salt): 0.2 µg/mL
MIC (C. freundii 1R527; Citrobacter freundii, 1R527): 0.78 µg/mL (≈ 0.942 µM)
MIC (E. cloacae 908RN; [2]): 3.13 µg/mL
MIC (E. cloacae 908RN; [3]): 1.56 µg/mL
MIC (P. cepacia OF189; Table 2, sodium salt): < 0.006 µg/mL
MIC (C. freundii 5D60-1; Citrobacter freundii, 5D601): 1.56 µg/mL (≈ 1.88 µM)
MIC (E. cloacae 1Y247; [4]): 6.25 µg/mL
MIC (P. aeruginosa GN10362; [5]): 0.2 µg/mL (≈ 0.242 µM)
MIC (C. freundii 1R526; Citrobacter freundii, 1R526): 0.78 µg/mL (≈ 0.942 µM)
MIC (C. freundii 1R523; Citrobacter freundii, 1R523): 1.56 µg/mL (≈ 1.88 µM)
MIC (E. cloacae 1V25): 6.25 µg/mL (≈ 7.55 µM)
MIC (C. freundii GN7391; Table 2, sodium salt): 12.5 µg/mL
MIC (C. freundii GN7391; Table 3, sodium salt): 12.5 µg/mL
half-life (in vivo): 5.3 h
MIC (E. coli ML4707; Table 2, sodium salt): 0.01 µg/mL
MIC (P. aeruginosa 5D58-1; Table 2, sodium salt): 0.39 µg/mL
MIC (P. vulgaris GN7919; Proteus vulgaris, GN7919): 0.78 µg/mL (≈ 0.942 µM)
MIC (C. freundii 1R524; Citrobacter freundii, 1R524): 0.78 µg/mL (≈ 0.942 µM)
MIC (C. freundii 1U589; Citrobacter freundii, 1U589): 0.78 µg/mL (≈ 0.942 µM)
MIC (S. aureus Smith; Table 2, sodium salt): 6.25 µg/mL
MIC (K. pneumoniae 4at521; Klebsiella pneumoniae, 4AT521): 0.012 µg/mL (≈ 0.0145 µM)
SMILES: Cc1cc(SCC2=C(C(=O)O)N3C(=O)C(NC(=O)C(=NOC(C)(C)C(=O)NNC(=O)c4ccc(O)c(O)c4)c4csc(N)n4)C3SC2)n2nc(C(=O)O)nc2n1 (centres unmarked) [Example 2]

MIC (A. calcoaceticu OF1063): 3.13 µg/mL
MIC (A. xylosoxidans OF1001): 1.56 µg/mL
MIC (E. coli NIHJ JC-2): 0.1 µg/mL
MIC (E. colacae GN7471; Table 2, sodium salt): 25 µg/mL
MIC (P. maltophilia OF247; Table 2, sodium salt): 0.78 µg/mL
MIC (E. cloacae 5D63-2; Enterobacter cloacae, 5D632): 50 µg/mL
MIC (S. marcescens GN10857; Table 2, sodium salt): 0.78 µg/mL
MIC (E. cloacae 5D52-2; Enterobacter cloacae, 5D522): 25 µg/mL
MIC (C. freundii 1U692; Citrobacter freundii, 1U692): 25 µg/mL
MIC (E. coli GN5482; Table 2, sodium salt): 1.56 µg/mL
MIC (P. aeruginosa 4au542; Table 2, sodium salt): 0.05 µg/mL
MIC (C. freundii 1R527; Citrobacter freundii, 1R527): 12.5 µg/mL
MIC (E. cloacae 908RN; [2]): > 100 µg/mL
MIC (E. cloacae 908RN; [3]): > 100 µg/mL
MIC (P. cepacia OF189; Table 2, sodium salt): 0.025 µg/mL
MIC (C. freundii 5D60-1; Citrobacter freundii, 5D601): 50 µg/mL
MIC (E. cloacae 1Y247; [4]): > 100 µg/mL
MIC (P. aeruginosa GN10362; [5]): 0.05 µg/mL
MIC (C. freundii 1R526; Citrobacter freundii, 1R526): 25 µg/mL
MIC (C. freundii 1R523; Citrobacter freundii, 1R523): 25 µg/mL
MIC (E. cloacae 1V25): 50 µg/mL
MIC (C. freundii GN7391; Table 2, sodium salt): > 100 µg/mL
MIC (C. freundii GN7391; Table 3, sodium salt): > 100 µg/mL
Vd ([1]; read-out: Central distribution volume): 0.144 L/kg
Vd ([1]; read-out: Tissue distribution volume): 0.295 L/kg
MIC (E. coli ML4707; Table 2, sodium salt): 0.025 µg/mL
MIC (P. aeruginosa 5D58-1; Table 2, sodium salt): 0.2 µg/mL
MIC (P. vulgaris GN7919; Proteus vulgaris, GN7919): 3.13 µg/mL
MIC (C. freundii 1R524; Citrobacter freundii, 1R524): 12.5 µg/mL
MIC (C. freundii 1U589; Citrobacter freundii, 1U589): 12.5 µg/mL
MIC (S. aureus Smith; Table 2, sodium salt): 6.26 µg/mL
MIC (K. pneumoniae 4at521; Klebsiella pneumoniae, 4AT521): 0.012 µg/mL
SMILES: CC(C)(ON=C(C(=O)NC1C(=O)N2C(C(=O)O)=C(COC(N)=O)CSC12)c1csc(N)n1)C(=O)NNC(=O)c1ccc(O)c(O)c1 (centres unmarked) [Example 1, 7-{2-[2-amino-1,3-thiazol-4-yl]-2-[1-(3-(3,4-dihydroxybenzoyl)carbazoyl)-1-methylethoxyimino]acetamide}-3-carbamoyloxymethyl-3-cephem-4-carboxylic acid.hydrochloride]

MIC (A. calcoaceticu OF1063): 12.5 µg/mL
MIC (A. xylosoxidans OF1001): 0.78 µg/mL
MIC (E. coli NIHJ JC-2): 0.1 µg/mL
MIC (E. colacae GN7471; Table 2, sodium salt): 3.13 µg/mL
MIC (E. colacae GN7471; Table 5): 1.56 µg/mL
MIC (P. maltophilia OF247; Table 2, sodium salt): 0.78 µg/mL
MIC (P. maltophilia OF247; Table 5): 0.39 µg/mL
MIC (E. cloacae 5D63-2; E. cloacae 5D63-2, Table 6): 3.13 µg/mL
MIC (E. cloacae 5D63-2; Enterobacter cloacae, 5D632): 3.13 µg/mL
MIC (S. marcescens GN10857; Table 2, sodium salt): 1.56 µg/mL
MIC (S. marcescens GN10857; Table 5): 0.39 µg/mL
MIC (E. cloacae 5D52-2; E. cloacae 5D52-2, Table 6): 0.2 µg/mL
MIC (E. cloacae 5D52-2; Enterobacter cloacae, 5D522): 0.2 µg/mL
MIC (C. freundii 1U692; C. freundii 1U692, Table 6): 3.13 µg/mL
MIC (C. freundii 1U692; Citrobacter freundii, 1U692): 3.13 µg/mL
MIC (E. coli GN5482; Table 2, sodium salt): 0.1 µg/mL
MIC (E. coli GN5482; Table 5): 0.012 µg/mL
MIC (P. aeruginosa 4au542; Table 2, sodium salt): 0.1 µg/mL
MIC (P. aeruginosa 4au542; Table 5): 0.2 µg/mL
MIC (C. freundii 1R527; C. freundii 1R527, Table 6): 0.78 µg/mL
MIC (C. freundii 1R527; Citrobacter freundii, 1R527): 0.78 µg/mL
MIC (E. cloacae 908RN; [2]): 3.13 µg/mL
MIC (E. cloacae 908RN; E. cloacae 908RN, Table 6): 3.13 µg/mL
MIC (E. cloacae 908RN; [3]): 3.13 µg/mL
MIC (E. cloacae 908RN; E. colacae 908RN, Table 5): 3.13 µg/mL
MIC (P. cepacia OF189; Table 2, sodium salt): 0.025 µg/mL
MIC (P. cepacia OF189; Table 5): 0.012 µg/mL
MIC (C. freundii 5D60-1; C. freundii 5D60-1, Table 6): 3.13 µg/mL
MIC (C. freundii 5D60-1; Citrobacter freundii, 5D601): 3.13 µg/mL
MIC (S. aureus IAA498): 6.25 µg/mL
MIC (E. cloacae 1Y247; [4]): 25 µg/mL
MIC (E. cloacae 1Y247; Table 6): 25 µg/mL
MIC (P. aeruginosa GN10362; P. aeruginosa GN10362, Table 5): 0.1 µg/mL
MIC (P. aeruginosa GN10362; [5]): 0.1 µg/mL
MIC (C. freundii 1R526; C. freundii 1R526, Table 6): 1.56 µg/mL
MIC (C. freundii 1R526; Citrobacter freundii, 1R526): 1.56 µg/mL
MIC (C. freundii 1R523; C. freundii 1R523, Table 6): 0.78 µg/mL
MIC (C. freundii 1R523; Citrobacter freundii, 1R523): 0.78 µg/mL
MIC (C. freundii GN7391; Table 2, sodium salt): 12.5 µg/mL
MIC (C. freundii GN7391; Table 3, sodium salt): 25 µg/mL
MIC (C. freundii GN7391; Table 5): 6.25 µg/mL
MIC (C. freundii GN7391; Table 6): 25 µg/mL
MIC (E. coli ML4707; Table 2, sodium salt): 0.012 µg/mL
MIC (E. coli ML4707; Table 5): < 0.006 µg/mL
MIC (P. aeruginosa 5D58-1; Table 2, sodium salt): 0.1 µg/mL
MIC (P. aeruginosa 5D58-1; Table 5): 0.2 µg/mL
MIC (P. vulgaris GN7919; P. vulgaris Gn7919, Table 5): 0.78 µg/mL
MIC (P. vulgaris GN7919; Proteus vulgaris, GN7919): 0.78 µg/mL
MIC (C. freundii 1R524; C. freundii 1R524, Table 6): 0.78 µg/mL
MIC (C. freundii 1R524; Citrobacter freundii, 1R524): 0.78 µg/mL
MIC (C. freundii 1U589; C. freundii 1U589, Table 6): 1.56 µg/mL
MIC (C. freundii 1U589; Citrobacter freundii, 1U589): 1.56 µg/mL
MIC (S. aureus Smith; Table 2, sodium salt): 0.78 µg/mL
MIC (S. aureus Smith; Table 5): 3.13 µg/mL
MIC (K. pneumoniae 4at521; K. pneumoniae 4at521, Table 5): 0.012 µg/mL
MIC (K. pneumoniae 4at521; Klebsiella pneumoniae, 4AT521): 0.012 µg/mL
SMILES: Cc1cc(SCC2=C(C(=O)O)N3C(=O)C(NC(=O)C(=NOC(C)(C)C(=O)NNC(=O)c4ccc(O)c(O)c4)c4csc(N)n4)C3SC2)n2ncnc2n1 (centres unmarked) [Example 12, 7-{2-[2-Amino-1,3-thiazol-4-yl]-2-[1-(3-(3,4-dihydroxybenzoyl)carbazoyl)-1-methylethoxyimino]acetamide}-3-[(5-methyl-s-triazolo[1,5-a]-pyrimidin-7-yl)thiomethyl]-3-cephem-4-carboxylic acid.hydrochloride]
